Measurements as given in US10280170B2, “Substituted 4,5,6,7-tetrahydro-pyrazolo[1,5-a]pyrazine derivatives and 5,6,7,8-tetrahydro-4H-pyrazolo[1,5-a][1,4]diazepine derivatives as Ros1 inhibitors” (Janssen Pharmaceutica NV, priority 2014, dated 2019).
Where two headings read alike, the source gives them in different places.

Key:
[1] = biological target: Ba/F3 cells containing Ros1 with a mutation at the gatekeeper residue (L2026M) (Homo sapiens, UniProt P08922, L2026M, cells depend on it, form not given); test: Ba/F3-Ros1 cell proliferation assay, L2026M gatekeeper mutant; assay type: cell-based, murine; details: without IL-3
Method in brief: (§1)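 Ba/F3 cells expressing wild-type, L2026M or G2032R Ros1 (20000 per well) were incubated with DMSO-solubilized compounds in phenol red-free RPMI-1640 with 10% FBS and 2 mM L-glutamine at 37 °C, 5% CO2 for 24 hours. Viability was then read by Alamar Blue fluorescence (ex 540/em 590 nm) after 4 h.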

[2] = tested on: HCC78 non-small cell lung cancer cells; test: HCC78 cell proliferation assay; assay type: cell-based; details: for EC50: Homo sapiens, HCC78, 96 h, read-out: HCC-78 PROL pEC50 (converted)
Method in brief: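 HCC78 NSCLC cells (~1000/well) in RPMI-1640 with 10% FBS were treated 24 h after seeding and exposed to compound for 4 days at 37 °C. Viability was read by MTT, with absorbance at 538 nm after DMSO/glycine solubilization.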

[3] = biological target: T1, Ba/F3 cells containing Ros1 wild-type protein (Homo sapiens, UniProt P08922, cells depend on it, form not given); test: Ba/F3-Ros1 cell proliferation assay, wild-type Ros1; assay type: cell-based, murine; details: without IL-3
T1 construct: The background only speaks of 'a number of different unrelated proteins' and names SLC34A2-ROS1 for HCC78 cells
Method in brief: as §1

[4] = tested on: Ba/F3 cells containing Ros1 wild-type protein + IL-3; test: Ba/F3-Ros1 cell proliferation counter-screen, wild-type protein in the presence of 10 ng/ml murine IL-3; assay type: cell-based; details: Mus musculus, BaF3, 24 h, read-out: BaF3-ROS1 + IL3 pIC50 (converted)
Method in brief: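 Compounds were dispensed from DMSO into plates, and 20000 Ba/F3 cells carrying wild-type Ros1 were added in phenol red-free RPMI-1640 with 10% FBS plus 10 ng/ml murine IL-3. After 24 h at 37 °C, Alamar Blue was added for 4 h and fluorescence recorded.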

[5] = biological target: T2, Ros1 enzyme (Homo sapiens, UniProt P08922); test: Ros1 enzymatic assay; assay type: biochemical; details: Ros1 enzymatic assay; read-out: ROS1 pIC50 (converted)
T2 construct: 0.5 μg/ml Ros1 enzyme
Method in brief: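 First, compounds meet Ros1 enzyme mix plus substrate mix containing IRS-Tide and 33P-labelled ATP at 20 μM. Next, incubation lasts 120 minutes at room temperature. Then EDTA stop buffer with streptavidin beads is added for 15 minutes, and bead-bound radioactivity is imaged.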

[6] = counter-screen, wild-type, 10 ng/ml murine IL-3

Sequence of Ba/F3 cells containing Ros1 with a mutation at the gatekeeper residue (L2026M) (P08922 whole entry L2026M, form open): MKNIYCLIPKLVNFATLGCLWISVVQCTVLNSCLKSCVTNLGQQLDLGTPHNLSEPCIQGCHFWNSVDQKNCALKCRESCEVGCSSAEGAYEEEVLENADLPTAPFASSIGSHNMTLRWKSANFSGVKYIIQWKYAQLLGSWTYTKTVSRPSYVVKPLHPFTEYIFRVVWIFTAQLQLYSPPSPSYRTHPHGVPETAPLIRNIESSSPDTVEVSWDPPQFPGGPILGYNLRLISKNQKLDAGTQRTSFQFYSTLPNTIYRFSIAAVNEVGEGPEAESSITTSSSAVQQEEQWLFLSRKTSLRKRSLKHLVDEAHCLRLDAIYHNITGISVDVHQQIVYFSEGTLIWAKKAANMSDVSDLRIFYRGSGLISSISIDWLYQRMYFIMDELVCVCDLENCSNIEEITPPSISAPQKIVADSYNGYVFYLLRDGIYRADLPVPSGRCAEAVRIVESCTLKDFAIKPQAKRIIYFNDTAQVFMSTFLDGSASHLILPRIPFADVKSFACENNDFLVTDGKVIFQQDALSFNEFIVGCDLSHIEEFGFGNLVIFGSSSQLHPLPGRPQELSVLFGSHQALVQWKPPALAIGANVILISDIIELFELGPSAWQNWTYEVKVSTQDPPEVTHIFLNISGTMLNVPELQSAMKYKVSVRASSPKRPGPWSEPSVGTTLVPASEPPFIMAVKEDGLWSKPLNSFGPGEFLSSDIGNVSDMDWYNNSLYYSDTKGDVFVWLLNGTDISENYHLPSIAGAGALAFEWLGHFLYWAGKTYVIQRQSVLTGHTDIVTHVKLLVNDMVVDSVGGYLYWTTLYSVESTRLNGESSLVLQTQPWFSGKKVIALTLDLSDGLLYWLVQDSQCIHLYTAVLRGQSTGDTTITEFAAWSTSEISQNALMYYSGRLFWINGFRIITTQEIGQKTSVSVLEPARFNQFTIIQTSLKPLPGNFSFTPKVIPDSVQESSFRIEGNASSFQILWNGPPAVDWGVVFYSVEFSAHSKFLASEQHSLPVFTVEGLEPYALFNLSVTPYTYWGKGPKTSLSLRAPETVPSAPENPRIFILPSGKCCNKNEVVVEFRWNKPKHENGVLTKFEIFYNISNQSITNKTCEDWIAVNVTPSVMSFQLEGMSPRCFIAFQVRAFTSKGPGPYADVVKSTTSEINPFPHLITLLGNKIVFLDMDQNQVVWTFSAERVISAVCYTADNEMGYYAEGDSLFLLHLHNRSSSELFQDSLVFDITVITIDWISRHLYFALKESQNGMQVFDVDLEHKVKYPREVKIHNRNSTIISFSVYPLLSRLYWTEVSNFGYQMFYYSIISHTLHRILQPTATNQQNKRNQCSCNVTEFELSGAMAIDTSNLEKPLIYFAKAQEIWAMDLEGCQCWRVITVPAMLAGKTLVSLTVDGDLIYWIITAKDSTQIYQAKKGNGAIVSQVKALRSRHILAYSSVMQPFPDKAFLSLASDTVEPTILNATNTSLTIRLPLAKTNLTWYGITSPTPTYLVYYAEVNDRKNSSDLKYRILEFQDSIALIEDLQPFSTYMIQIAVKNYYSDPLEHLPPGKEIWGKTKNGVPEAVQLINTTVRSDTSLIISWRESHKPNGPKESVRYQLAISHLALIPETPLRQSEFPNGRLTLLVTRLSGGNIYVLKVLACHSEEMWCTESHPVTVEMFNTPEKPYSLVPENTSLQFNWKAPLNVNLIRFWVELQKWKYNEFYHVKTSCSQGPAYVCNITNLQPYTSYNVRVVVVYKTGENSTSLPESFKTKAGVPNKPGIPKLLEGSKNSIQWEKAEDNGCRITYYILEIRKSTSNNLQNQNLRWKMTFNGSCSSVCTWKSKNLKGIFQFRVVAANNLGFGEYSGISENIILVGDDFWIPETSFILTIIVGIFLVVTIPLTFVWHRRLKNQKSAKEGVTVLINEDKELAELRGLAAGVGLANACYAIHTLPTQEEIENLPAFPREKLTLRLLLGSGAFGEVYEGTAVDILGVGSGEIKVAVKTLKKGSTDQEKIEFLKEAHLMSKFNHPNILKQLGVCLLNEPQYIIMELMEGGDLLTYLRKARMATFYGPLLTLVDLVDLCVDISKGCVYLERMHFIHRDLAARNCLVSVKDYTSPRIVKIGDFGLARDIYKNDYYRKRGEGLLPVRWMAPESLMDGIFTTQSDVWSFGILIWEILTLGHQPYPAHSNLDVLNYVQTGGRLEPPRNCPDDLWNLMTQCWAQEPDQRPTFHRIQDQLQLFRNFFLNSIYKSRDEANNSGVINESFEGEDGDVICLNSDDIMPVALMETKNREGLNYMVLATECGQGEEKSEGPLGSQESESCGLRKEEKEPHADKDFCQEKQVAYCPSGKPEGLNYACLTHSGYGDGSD
T2 sequence (P08922 28-2347): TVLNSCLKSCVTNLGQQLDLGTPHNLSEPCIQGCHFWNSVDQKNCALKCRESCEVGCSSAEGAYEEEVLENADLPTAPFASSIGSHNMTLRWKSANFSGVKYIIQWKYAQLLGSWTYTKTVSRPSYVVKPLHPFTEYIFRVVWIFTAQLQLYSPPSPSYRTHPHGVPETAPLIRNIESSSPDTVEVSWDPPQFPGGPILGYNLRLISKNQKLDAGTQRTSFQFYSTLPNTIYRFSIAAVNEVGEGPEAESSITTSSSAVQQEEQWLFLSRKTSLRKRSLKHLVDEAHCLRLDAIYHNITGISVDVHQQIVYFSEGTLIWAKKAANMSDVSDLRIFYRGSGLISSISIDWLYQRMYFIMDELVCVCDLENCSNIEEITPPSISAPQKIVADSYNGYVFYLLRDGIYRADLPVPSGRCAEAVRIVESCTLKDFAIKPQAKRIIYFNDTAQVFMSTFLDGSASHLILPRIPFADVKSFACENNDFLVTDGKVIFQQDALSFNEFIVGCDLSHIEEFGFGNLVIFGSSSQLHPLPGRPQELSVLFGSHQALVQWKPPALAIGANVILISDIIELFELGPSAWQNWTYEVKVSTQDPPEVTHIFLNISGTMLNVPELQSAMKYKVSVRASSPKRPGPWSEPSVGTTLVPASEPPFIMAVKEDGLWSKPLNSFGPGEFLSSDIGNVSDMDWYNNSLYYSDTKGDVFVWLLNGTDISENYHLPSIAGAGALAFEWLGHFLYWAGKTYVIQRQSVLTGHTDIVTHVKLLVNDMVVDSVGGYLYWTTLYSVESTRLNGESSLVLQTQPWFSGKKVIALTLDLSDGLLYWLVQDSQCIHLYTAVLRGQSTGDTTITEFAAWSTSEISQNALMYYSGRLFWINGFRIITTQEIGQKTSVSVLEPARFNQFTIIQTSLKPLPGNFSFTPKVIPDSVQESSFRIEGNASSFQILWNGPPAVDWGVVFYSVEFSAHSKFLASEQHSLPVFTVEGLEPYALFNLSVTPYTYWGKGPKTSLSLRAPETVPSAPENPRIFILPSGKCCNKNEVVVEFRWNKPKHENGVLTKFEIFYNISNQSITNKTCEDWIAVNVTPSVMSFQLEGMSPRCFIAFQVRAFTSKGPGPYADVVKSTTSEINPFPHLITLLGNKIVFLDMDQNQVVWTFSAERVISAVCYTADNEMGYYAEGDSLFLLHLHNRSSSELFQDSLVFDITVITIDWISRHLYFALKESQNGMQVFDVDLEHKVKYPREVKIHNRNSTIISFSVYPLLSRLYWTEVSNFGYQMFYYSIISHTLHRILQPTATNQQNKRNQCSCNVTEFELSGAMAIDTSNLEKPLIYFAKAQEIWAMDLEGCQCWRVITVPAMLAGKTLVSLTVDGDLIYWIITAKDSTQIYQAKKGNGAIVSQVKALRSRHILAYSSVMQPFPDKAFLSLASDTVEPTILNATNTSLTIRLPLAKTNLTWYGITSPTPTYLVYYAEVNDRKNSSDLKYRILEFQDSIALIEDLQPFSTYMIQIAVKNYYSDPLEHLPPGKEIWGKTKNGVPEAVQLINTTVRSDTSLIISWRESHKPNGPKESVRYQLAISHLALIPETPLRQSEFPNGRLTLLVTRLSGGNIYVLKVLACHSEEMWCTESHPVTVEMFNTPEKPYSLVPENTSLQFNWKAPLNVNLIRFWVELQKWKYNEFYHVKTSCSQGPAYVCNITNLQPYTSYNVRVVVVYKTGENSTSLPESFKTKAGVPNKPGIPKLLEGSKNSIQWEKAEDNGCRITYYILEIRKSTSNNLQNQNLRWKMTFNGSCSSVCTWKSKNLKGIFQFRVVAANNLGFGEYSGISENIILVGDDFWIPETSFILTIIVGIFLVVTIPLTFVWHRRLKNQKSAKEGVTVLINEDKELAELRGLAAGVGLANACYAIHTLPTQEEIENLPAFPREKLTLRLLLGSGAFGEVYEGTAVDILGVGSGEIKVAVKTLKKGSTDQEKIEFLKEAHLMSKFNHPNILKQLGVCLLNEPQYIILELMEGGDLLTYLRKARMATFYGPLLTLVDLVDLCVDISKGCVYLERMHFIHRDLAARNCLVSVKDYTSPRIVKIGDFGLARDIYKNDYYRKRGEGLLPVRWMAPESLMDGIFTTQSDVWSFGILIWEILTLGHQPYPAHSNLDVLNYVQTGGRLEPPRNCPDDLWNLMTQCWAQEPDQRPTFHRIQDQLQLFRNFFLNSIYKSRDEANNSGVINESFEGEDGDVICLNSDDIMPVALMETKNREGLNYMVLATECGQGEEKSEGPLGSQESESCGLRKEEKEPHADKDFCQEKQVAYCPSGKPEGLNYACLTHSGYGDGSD
T1 sequence (P08922 whole entry, stated change not applied): as the sequence (P08922 whole entry L2026M, form open) above, with M2026L counted along it

Row | SMILES | Ba/F3 Ros1 L2026M (-IL-3) pIC50 [1] | EC50 [2] | melting point | BaF3-ROS1-IL3 pIC50 [3] | CC50 [4] | IC50 [5] | EC50 ([2]; HCC78 cells, 4 days, MTT) | CC50 [4, 6] | HCC-78 PROL pEC50 ([2]; HCC78 cells, 4 days, MTT)
1 | CC(C)c1ccc(COc2ccc(-c3c(-c4ccncc4)nn4c3C(=O)NC(CO)C4)cc2)cc1 (stereo not drawn) [Compound 193] | 6.3 | 200 nM | 254 °C | 7.3 | > 10000 nM | 79.4 nM |  |  | 
2 | CC(C)c1ccc(COc2ccc(-c3c(-c4ccncc4)nn4c3C(=O)N(CCO)CC4)cc2)cn1 [Compound 81] | 6.5 | 158 nM | 93 °C | 7.3 | > 10000 nM | 63.1 nM |  |  | 
3 | CC(C)c1ccc(COc2ccc(-c3c(-c4ccncn4)nn4c3C(=O)N(CC(O)CO)CC4)cc2)cc1 (stereo not drawn) [Compound 161] | 6.7 |  | 209 °C | 7.1 |  | 50.1 nM | 316 nM | > 10000 nM | 
4 | CC(O)CN1CCn2nc(-c3ccncc3)c(-c3ccc(OCc4ccc(C5CC5)cc4)cc3)c2C1=O (stereo not drawn) [Compound 134] | 7.0 |  | 196 °C | 7.3 |  | 79.4 nM | 200 nM | > 10000 nM | 
5 | COc1cc(-c2c(-c3ccncc3)nn3c2C(=O)N(CCO)CC3)cc(OC)c1OCc1ccc(C(C)C)cc1 [Compound 36] | 5.7 | > 10000 nM | 176 °C | 5.8 | > 10000 nM | 5010 nM |  |  | 
6 | CC(C)c1ccc(C2CCc3cc(-c4c(-c5ccncc5)nn5c4C(=O)NCC5)ccc3O2)cc1 (stereo not drawn) [Compound 199] | 7.5 | 1260 nM | 262 °C | 7.1 | > 10000 nM | 200 nM |  |  | 
7 | CC(C)OCC(O)CN1CCn2nc(-c3ccncc3)c(-c3ccc(OCc4ccc(C(C)C)cc4)cc3)c2C1=O (stereo not drawn) [Compound 45] | 6.6 | 1260 nM | 148 °C | 6.7 | > 10000 nM | 158 nM |  |  | 
8 | CNCC1Cn2nc(-c3ccncc3)c(-c3ccc(OCc4ccc(C(C)C)cc4)cc3)c2C(=O)N1 (stereo not drawn) [Compound 194] | 6.2 | 501 nM | 230 °C | 6.6 | 6310 nM | 79.4 nM |  |  | 
9 | CC(C)c1ccc(C2COc3cc(-c4c(-c5ccncc5)nn5c4C(=O)NCC5)ccc3O2)cc1 (stereo not drawn) [Compound 201] | 7.4 |  | 290 °C | 7.8 |  | 25.1 nM | 39.8 nM | > 10000 nM | 
10 | CC(C)c1ccc(COc2ccc(-c3c(-c4ccncc4)nn4c3C(=O)NCC4)c(F)n2)cc1 [Compound 74] | 7.5 | 12.6 nM | 275 °C | 8.1 | > 10000 nM | 15.8 nM |  |  | 
11 | O=C1c2c(-c3ccc(OCc4ccc(OC(F)(F)F)cc4)cc3F)c(-c3ccncc3)nn2CCN1CCO [Compound 206] | ~7.4 | 100 nM | 140 °C | 7.5 | > 10000 nM | 39.8 nM |  |  | 
12 | O=C1c2c(-c3ccc(OCc4ccc(C5CC5)nc4)cc3)c(-c3ccncc3)nn2CCN1CCO [Compound 139] | 6.0 | 100 nM | 97 °C | 6.8 | > 10000 nM | 126 nM |  |  | 
13 | CC(C)c1ccc(COc2ccc(-c3c(-c4ccncc4)nn4c3C(=O)N(CCO)CC4)cc2)c(F)c1 [Compound 92] | 6.7 | 200 nM | 132 °C | 7.2 | > 10000 nM | 50.1 nM |  |  | 
14 | CC(C)c1ccc(COc2ccc(-c3c(-c4ccncc4)nn4c3C(=O)N(CCO)CC4)cc2)cc1O [Compound 79] | 7.3 | 2510 nM | 236 °C | 7.8 | > 10000 nM | 25.1 nM |  |  | 
15 | CC(O)CN1CCn2nc(-c3ccncc3)c(-c3ccc(OCc4ccc(C(C)C)cc4)cc3)c2C1 (stereo not drawn) [Compound 191] | 7.0 |  | 148 °C | 6.9 |  | 158 nM | 501 nM | > 10000 nM | 
16 | COc1cc(C(C)C)ccc1COc1ccc(-c2c(-c3ccncc3)nn3c2C(=O)NCC3)cc1 [Compound 216] | 6.9 | 631 nM | 200 °C | 7.3 | > 10000 nM | 63.1 nM |  |  | 
17 | CC(C)c1ccc(COc2ccc(-c3c(-c4ccnc(CO)c4)nn4c3C(=O)NCC4)cc2)cc1 [Compound 233] | 5.9 | 2510 nM | 232 °C | 6.5 | > 10000 nM | 794 nM |  |  | 
18 | CC(C)c1ccc(COc2ccc(-c3c(-c4ccncc4)nn4c3C(=O)N(CC(O)CO)CC4)c(F)c2)cc1 (stereo not drawn) [Compound 23] | 7.2 |  | 192 °C | 7.7 |  | 12.6 nM |  | > 10000 nM | 7.2
19 | CC(C)c1ccc(COc2ccc(-c3c(-c4ccncc4)nn4c3C(=O)N(CC3CCCO3)CC4)cc2)cc1 (stereo not drawn) [Compound 55] | 6.8 | 794 nM | 165 °C | 7.0 | > 10000 nM | 126 nM |  |  | 
20 | CC(C)(O)c1ccc(COc2ccc(-c3c(-c4ccncc4)nn4c3C(=O)N(CCO)CC4)cc2)cc1 [Compound 115] | <5 | 1580 nM | 193 °C | 6.3 | > 10000 nM | 1260 nM |  |  | 
21 | CC(C)c1ccc(COc2ccc(-c3c(-c4ccncc4)nn4c3CN(CCO)CC4)cc2)cc1 [Compound 176] | 7.1 |  | 150 °C | 6.9 |  | 158 nM | 79.4 nM | > 10000 nM | 
22 | CC(C)c1ccc(COc2ccc(-c3c(-c4ccnc5[nH]ccc45)nn4c3C(=O)NCC4)cc2)cc1 [Compound 155] | 7.5 | 79.4 nM | 266 °C | 7.8 | > 10000 nM | 31.6 nM |  |  | 
